Experimental data published in patent US6809096B1, “Phenanthroline-7-one derivatives and their therapeutic uses” (Laboratoire L. Lafon, priority 1999, dated 2004).

Tests used:
leukaemia cell model = details: cytotoxicity; cited from earlier work
[1] = system: 12 human cancer cell lines (U-373MG, U-87MG, SW1088, A549, A-427, HCT-15, LoVo, T-47D, MCF7, J82, T24, PC-3); experiment: Cytotoxic activity on tumour cell lines in culture (MTT test); assay type: cell-based; details: Homo sapiens, mean IC50 calculated from the individual cytotoxic activities on each of the 12 tumour lines, 72 hours incubation
Protocol: 1—Cytotoxic Activity on Tumour Cell Lines in Culture (MTT Test)
The influence of the compounds of formula (I) and of (Ia) on tumour cells was evaluated using the MTT calorimetric test (T. Mosman, J. Immunol. Methods, 1983; 65: 55-63, J. Carmichael et al., Cancer Res. 1987; 47: 936-942).
The principle of the MTT test is based on the mitochondrial reduction by metabolically active alive cells of the yellow-coloured product MTT (3-(4,5-dimethylthiazol-2-yl)-2,5-diphenyltetrazolium bromide) to a blue-coloured product, formazan. The amount of formazan thus obtained is directly proportional to the amount of live cells present in the culture well or wells. This amount of formazan is measured by spectrophotometry.
The cell lines are maintained in monolayer culture at 37° C. in stoppered culture dishes containing 25 MM HEPES MEM (Minimum Essential Medium) base medium. This medium is well suited to the growth of a range of varied diploid or primary mammalian cells. This medium is subsequently supplemented: […]
with an amount of 5% of FCS (Foetal Calf Serum) decomplemented at 56° C. for 1 hour, with 0.6 mg/ml of L-glutamine, with 200 IU/ml of penicillin, with 200 μg/ml of streptomycin, with 0.1 mg/ml of gentamicin.
The 12 human cancer cell lines which were used were obtained from the American Type Culture Collection (ATCC, Rockville, Md., USA). These 12 cell lines are:
U-373MG (ATCC code: HTB-17) and U-87MG (ATCC code: HTB-14), which are two glioblastomas, SW1088 (ATCC code: HTB-12) which is an astrocytoma, A549 (ATCC code: CCL-185) and A-427 (ATCC code: HTB-53), which are two non-small-cell lung cancers, HCT-15 (ATCC code: CCL-225) and LoVo (ATCC code: CCL-229), which are two colorectal cancers, T-47D (ATCC code: HTB-133) and MCF7 (ATCC code: HTB-22), which are two breast cancers, J82 (ATCC code: HTB-1) and T24 (ATCC code: […]), which are two bladder cancers, PC-3 (ATCC code: CRL-1435), which is a prostate cancer.
Experimentally: 100 μl of a cell suspension comprising 20 000 to 50 000 (depending on the cell type used) cells/ml of culture medium are inoculated in flat-bottomed 96-well multi-well plates and are incubated at 37° C. under an atmosphere comprising 5% of CO2 and 70% humidity. After incubating for 24 hours, the culture medium is replaced with 100 μl of fresh medium comprising either the various test compounds at concentrations varying from 10^−5 to 10^−10 M of the solvent used to dissolve the -test products (control condition). After incubating for 72 hours under the above conditions, the culture medium is replaced with 100 μl of a yellowish solution of MTT dissolved, in a proportion of 1 mg/ml, in RPMI 1640. The microplates are reincubated for 3 hours at 37° C. and then centrifuged for 10 minutes at 400 g. The yellowish MTT solution is removed and the blue formazan crystals formed at the cellular level are dissolved in 100 μl of DMSO. The microplates are subsequently agitated for 5 minutes. The intensity of the resulting blue coloration, and thus of the conversion of the yellow MTT product into blue formazan by the cells which are still alive at the end of the experiment, is quantified by spectrophotometry using a device of DYNATECH IMOASSAY SYSTEM type at wavelengths of 570 nm and 630 nm corresponding respectively to the maximum absorption wavelengths of formazan and to the background noise. Software built into the spectrophotometer calculates the mean optical density values and the standard deviation (Std. Dev.) and standard error of the mean (SEM) values.
The inhibitory activity on the cell growth of the compounds of formula (I) and (Ia) on the various tumour cell lines was measured in comparison with that of the natural product.

[2] = Determination of the maximum tolerated dose (MTD); details: mouse, in vivo, ip; B6D2F1/Jico mice, single intraperitoneal administration, survival over 14 days, doses 2.5 to 160 mg/kg; read-out: DMT (mg/kg) (Maximum Tolerated Doses)
Protocol: 2—Determination of the Maximum Tolerated Dose (MTD)
The evaluation of the maximum tolerated dose was carried out on B6D2F1/Jico mice aged from 4 to 6 weeks. The compounds were administered intraperitoneally at increasing doses ranging from 2.5 to 160 mg/kg. The value of the MTD (expressed in mg/kg) is determined from the observation of the survival rates of the animals over a period of 14 days after a single administration of the product under consideration. The change in the weight of the animals is also monitored over this period. When that the value of the MTD is greater than 160 mg/kg, the value of the MTD is categorized as 160 mg/kg by default.

Row | Compound | ED50 (leukaemia cell model) | IC50 [1] | MTD at 14 days [2] | melting point
1 | 2-bromoleptoclinidone | 0.4 mg/L | – | – | –
2 | COc1ccnc2c1C(=O)c1nccc3ccnc-2c13 [CRL 8363, 8-Methoxy-7H-pyrido[4,3,2-de][1,10]phenanthroline-7-one] | – | 0.5 µM | 10 mg/kg | –
3 | COc1ccnc2c1-c1nccc3ccnc(c13)C2=O [CRL 8364, 11-methoxy-7H-pyrido[4,3,2-de][1,7]phenanthroline-7-one] | – | 0.27 µM | 5 mg/kg | –
4 | CN(C)c1ccnc2c1-c1nccc3ccnc(c13)C2=O [CRL 8367, 11-(Dimethylamino)-7H-pyrido[4,3,2-de][1,7]phenanthroline-7-one] | – | 1.65 µM | 10 mg/kg | –
5 | O=C1c2nccc(O)c2-c2nccc3ccnc1c23 [CRL 8388, 11-Hydroxy-7H-pyrido[4,3,2-de][1,7]phenanthroline-7-one] | – | 6.2 µM | 10 mg/kg | –
6 | O=C1c2c(Cl)ccnc2-c2nccc3ccnc1c23 [CRL 8396, 8-Chloro-7H-pyrido[4,3,2-de][1,10]phenanthroline-7-one] | – | 0.6 µM | 20 mg/kg | –
7 | COc1cnc2c3c(nccc13)-c1ncccc1C2=O [CRL 8400, 4-Methoxy-7H-pyrido[4,3,2-de][1,10]phenanthroline-7-one] | – | 0.38 µM | > 160 mg/kg | –
8 | COc1cnc2c3c(nccc13)-c1cccnc1C2=O [CRL 8401, 4-Methoxy-7H-pyrido[4,3,2-de][1,7]phenanthroline-7-one] | – | 0.053 µM | > 160 mg/kg | –
9 | COc1ccnc2c1-c1nccc3c(OC)cnc(c13)C2=O [CRL 8440, 4,11-Dimethoxy-7H-pyrido[4,3,2-de][1,7]phenanthroline-7-one] | – | 0.01 µM | 20 mg/kg | –
10 | COc1cnc2c3c(nccc13)-c1c(N(C)C)ccnc1C2=O [CRL 8441, 4-Methoxy-11-dimethylamino-7H-pyrido[4,3,2-de][1,7]phenanthroline-7-one] | – | 5 µM | > 160 mg/kg | –
11 | COc1ccc2c(n1)C(=O)c1ncc(OC)c3ccnc-2c13 [CRL 8479, 4,9-Dimethoxy-7H-pyrido[4,3,2-de][1,7]phenanthroline-7-one] | – | – | – | > 260 °C
12 | O=C1c2ncccc2-c2nccc3c(Cl)cnc1c23 [CRL 8480, 4-Chloro-7H-pyrido[4,3,2-de][1,7]phenanthroline-7-one] | – | – | – | > 260 °C
13 | CN(C)c1cnc2c3c(nccc13)-c1cccnc1C2=O [CRL 8481, 4-Dimethylamino-7H-pyrido[4,3,2-de][1,7]phenanthroline-7-one] | – | – | – | > 260 °C
14 | CCOC(=O)c1cnc2c(c1)-c1nccc3ccnc(c13)C2=O [CRL 8482, 10-Ethoxycarbonyl-7H-pyrido[4,3,2-de][1,7]phenanthroline-7-one] | – | – | – | 246 °C
15 | O=C1c2nc(O)ccc2-c2nccc3ccnc1c23 [CRL 8483, 9-Hydroxy-7H-pyrido[4,3,2-de][1,7]phenanthroline-7-one] | – | – | – | > 260 °C
16 | COc1ccc2c(n1)C(=O)c1nccc3ccnc-2c13 [CRL 8484, 9-Methoxy-7H-pyrido[4,3,2-de][1,7]phenanthroline-7-one] | – | – | – | > 260 °C
17 | COc1cc(OC)c2c(n1)C(=O)c1nccc3ccnc-2c13 [CRL 8485, 9,11-Dimethoxy-7H-pyrido[4,3,2-de][1,7]phenanthroline-7-one] | – | – | – | > 260 °C
18 | CN(C)c1cc(Cl)nc2c1-c1nccc3ccnc(c13)C2=O [CRL 8486, 9-Chloro-11-dimethylamino-7H-pyrido[4,3,2-de][1,7]phenanthroline-7-one] | – | – | – | 246 °C
19 | I.I.O=C1c2ncccc2-c2nccc3c(O)cnc1c23 [CRL 8487, 4-Hydroxy-7H-pyrido[4,3,2-de][1,7]phenanthroline-7-one dihydroiodide] | – | – | – | > 260 °C
